The values below come from patent US11000033B2, “Ketone or oxime compound, and herbicide” (NISSAN CHEMICAL CORPORATION, priority 2014, dated 2021).

What all share (assay type): in vivo
In data set [1] the test system is Echinochloa crus-galli var. crus-galli. In words: Test Example 3: herbicidal effect by foliage application, Wagner pot (symbol H). The following applies: application herbicide amount 320 g/ha. Put shortly:
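Foliar spray of a water-diluted emulsion at a predetermined herbicide amount, applied to 14-day-old plants. Seedlings were raised in flooded alluvial soil (0.1–0.5 cm water) at 25–30 °C in a greenhouse. Injury was rated after 3 weeks against fixed criteria.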

Another data set concerns Amaranthus retroflexus. In words: Test Example 4: herbicidal effect by soil treatment (symbol N). The settings on record: application herbicide amount 320 g/ha. In a few lines: (§1)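 Seeds were sown in sterilized diluvial soil, covered with about 1.5 cm of soil, and the soil surface was sprayed with a water-diluted emulsion of the compound at a predetermined rate. Plants grew in a greenhouse at 25° C. to 30° C.; effects were scored visually 3 weeks after application.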

For a further data set, the system named is Galium spurium. The experiment in a line: Test Example 4: herbicidal effect by soil treatment (symbol Q). The following applies: application herbicide amount 320 g/ha. In a few lines: as §1
The subject of a further data set is wheat. In words: Test Example 4: effect on crop by soil treatment (symbol e). The following applies: application herbicide amount 320 g/ha. In a few lines: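 Plants grew in a 25° C. to 30° C. greenhouse after spot-sowing of seeds, including beet, rapeseed, wheat and rice, into sterilized diluvial soil under roughly 1.5 cm of cover soil.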
Data set [2] concerns Digitaria ciliaris. In words: Test Example 4: herbicidal effect by soil treatment (symbol F). The settings on record: application herbicide amount 320 g/ha. Put shortly:
as §1

The subject of another data set is Alopecurus myosuroides. In words: Test Example 5: herbicidal effect by foliage application, plastic box (symbol J). The settings on record: 320 g/ha, 3 weeks after application. Put shortly: (§2)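 Greenhouse foliar test: seedlings at 14 days, grown 25° C. to 30° C. in sterilized diluvial soil; compound applied as an aqueous dilution of an emulsion; response read 3 weeks after spraying.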

For the next data set, the system named is Abutilon theophrasti. The experiment in a line: Test Example 5: herbicidal effect by foliage application, plastic box (symbol M). The settings on record: 320 g/ha, 3 weeks after application. Put shortly:
as §2

Another data set relates to transplanted rice plant. The experiment in a line: Test Example 1: effect on crop, application before weed generation in submerged conditions (symbol a). The settings on record: application herbicide amount 320 g/ha. In a few lines: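 Rice at 2.5 leaf stage transplanted into submerged soil (4 cm depth) sown with three weed species; herbicide applied before weed emergence.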

For another data set, the system named is beet. The experiment in a line: Test Example 5: effect on crop by foliage application, plastic box (symbol f). The following applies: 320 g/ha, 3 weeks after application. Put shortly:
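Greenhouse test at 25° C. to 30° C. Seeds of crops and weeds were spot-sown in boxes of sterilized diluvial soil under roughly 1.5 cm soil cover, then grown for foliage treatment.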

The test system of data set [3] is Chenopodium album. In words: Test Example 5: herbicidal effect by foliage application, plastic box (symbol O). The settings on record: 320 g/ha, 3 weeks after application. In a few lines: as §2
For data set [4], the system named is Digitaria ciliaris. The experiment in a line: Test Example 5: herbicidal effect by foliage application, plastic box (symbol F). The following applies: 320 g/ha, 3 weeks after application. In a few lines: as §2
The subject of another data set is Veronica persica. In words: Test Example 4: herbicidal effect by soil treatment (symbol R). The following applies: application herbicide amount 320 g/ha. Put shortly: as §1
Data set [5] has as its system directly sowed rice plant. In words: Test Example 3: effect on crop by foliage application, Wagner pot (symbol b). The following applies: application herbicide amount 320 g/ha. Put shortly: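 Alluvial soil in a 1/10000-are Wagner pot was flooded to a water depth of 0.1–0.5 cm. Echinochloa crus-galli var. crus-galli, Leptochloa chinensis, Cyperus difformis and rice were sown into it and grown in a greenhouse at 25–30 °C.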

The next data set concerns Stellaria media. In words: Test Example 5: herbicidal effect by foliage application, plastic box (symbol P). The settings on record: 320 g/ha, 3 weeks after application. In a few lines:
as §2

In data set [6] the test system is Lolium multiflorum Lam. The experiment in a line: Test Example 4: herbicidal effect by soil treatment (symbol K). The following applies: application herbicide amount 320 g/ha. In a few lines: as §1
Another data set relates to Setaria viridis. The experiment in a line: Test Example 4: herbicidal effect by soil treatment (symbol G). The settings on record: application herbicide amount 320 g/ha. Put shortly:
as §1

Data set [7] deals with Chenopodium album. The experiment in a line: Test Example 4: herbicidal effect by soil treatment (symbol O). The following applies: application herbicide amount 320 g/ha. Put shortly: as §1
The test system of data set [8] is Lolium multiflorum Lam. In words: Test Example 5: herbicidal effect by foliage application, plastic box (symbol K). The settings on record: 320 g/ha, 3 weeks after application. Put shortly: as §2

For the compound `CON=C(C)CC1CC(O)=C(c2c(C)cc(-c3ccc(F)c(Cl)c3)cc2C)C1=O` (stereo not drawn) [6-085], in data set [1], the “herbicidal effect on H (Echinochloa crus-galli var. crus-galli), grade 0-5” value (from here on “herbicidal effect on H”) is reported as 5 (Herbicidal ratio of 90% or more (almost completely withered)). Further, in the data set with Amaranthus retroflexus, the “Herbicidal effect grade, N: Amaranthus retroflexus” value is on record as 5 (Herbicidal ratio of 90% or more (almost completely withered)). Moreover, the “Herbicidal effect grade, Q: Galium spurium” value in the data set on Galium spurium is 4 (Herbicidal ratio of 70% or higher and lower than 90%). In addition, the “Effect on crop grade, e: wheat” value in the data set on wheat is 3 (Herbicidal ratio of 40% or higher and lower than 70%). Moreover, the “Herbicidal effect grade, F: Digitaria ciliaris” value in the data set on Digitaria ciliaris [2] was 5 (Herbicidal ratio of 90% or more (almost completely withered)). Further, the “J: Alopecurus myosuroides, herbicidal effect (criteria of Test Example 1)” value (shortened to “J: Alopecurus myosuroides”) in the data set with Alopecurus myosuroides is 5 (Herbicidal ratio of 90% or more (almost completely withered)). Further, in the data set with Abutilon theophrasti, the “M: Abutilon theophrasti, herbicidal effect (criteria of Test Example 1)” value (shortened to “M: Abutilon theophrasti”) was 4 (Herbicidal ratio of 70% or higher and lower than 90%). Further, in the data set on transplanted rice plant, the “Effect grade on crop, a: transplanted rice plant” value (“Effect grade on crop” for short) was 5 (Herbicidal ratio of 90% or more (almost completely withered)). The “f: beet, effect on crop (criteria of Test Example 1)” value (“f: beet, effect on crop” for short) in the data set on beet is 4 (Herbicidal ratio of 70% or higher and lower than 90%). The “O: Chenopodium album, herbicidal effect (criteria of Test Example 1)” value in the data set on Chenopodium album [3] is 5 (Herbicidal ratio of 90% or more (almost completely withered)). Further, in the data set with Digitaria ciliaris [4], the “F: Digitaria ciliaris, herbicidal effect (criteria of Test Example 1)” value was 5 (Herbicidal ratio of 90% or more (almost completely withered)). Moreover, in the data set with Veronica persica, the “Herbicidal effect grade, R: Veronica persica” value was 4 (Herbicidal ratio of 70% or higher and lower than 90%). Moreover, the “effect on crop b (directly sowed rice plant), grade 0-5” value (from here on “effect on crop b”) in [5] is given as 5 (Herbicidal ratio of 90% or more (almost completely withered)). For the same compound, the “P: Stellaria media, herbicidal effect (criteria of Test Example 1)” value (shortened to “P: Stellaria media, herbicidal effect”) in the data set with Stellaria media was 3 (Herbicidal ratio of 40% or higher and lower than 70%). In addition, the “Herbicidal effect grade, K: Lolium multiflorum Lam.” value in the data set on Lolium multiflorum Lam. [6] was 5 (Herbicidal ratio of 90% or more (almost completely withered)). For the same compound, in the data set on Setaria viridis, the “Herbicidal effect grade, G: Setaria viridis” value is reported as 5 (Herbicidal ratio of 90% or more (almost completely withered)). Moreover, the “Herbicidal effect grade, O: Chenopodium album” value in the data set with Chenopodium album [7] is 5 (Herbicidal ratio of 90% or more (almost completely withered)). The “K: Lolium multiflorum Lam., herbicidal effect (criteria of Test Example 1)” value with Lolium multiflorum Lam. [8] was 5 (Herbicidal ratio of 90% or more (almost completely withered)).
On to `CON=C(C)CC1CC(OC(=O)COc2ccccc2)=C(c2c(C)cc(-c3ccc(Cl)cc3)cc2OC)C1=O` (stereo not drawn) [6-079], for which the “herbicidal effect on H” value in data set [1] is given as 5 (Herbicidal ratio of 90% or more (almost completely withered)). For the same compound, the “N: Amaranthus retroflexus, herbicidal effect grade” value in the data set on Amaranthus retroflexus was 4 (Herbicidal ratio of 70% or higher and lower than 90%). Also, the “Q: Galium spurium, herbicidal effect grade” value in the data set with Galium spurium is on record as 0 (Herbicidal ratio of 5% or lower (almost no effect)). Also, the “e: wheat, effect on crop grade” value in the data set with wheat was 3 (Herbicidal ratio of 40% or higher and lower than 70%). Besides, the “F: Digitaria ciliaris, herbicidal effect grade” value with Digitaria ciliaris [2] is 5 (Herbicidal ratio of 90% or more (almost completely withered)). In addition, in the data set on Alopecurus myosuroides, the “J: Alopecurus myosuroides” value is 5 (Herbicidal ratio of 90% or more (almost completely withered)). In the data set with Abutilon theophrasti, the “M: Abutilon theophrasti” value was 4 (Herbicidal ratio of 70% or higher and lower than 90%). The “Effect grade on crop” value in the data set on transplanted rice plant is recorded as 5 (Herbicidal ratio of 90% or more (almost completely withered)). For the same compound, the “f: beet, effect on crop” value with beet is recorded as 0 (Herbicidal ratio of 5% or lower (almost no effect)). In addition, the “O: Chenopodium album, herbicidal effect (criteria of Test Example 1)” value with Chenopodium album [3] is 3 (Herbicidal ratio of 40% or higher and lower than 70%). The “F: Digitaria ciliaris, herbicidal effect (criteria of Test Example 1)” value in the data set on Digitaria ciliaris [4] is recorded as 5 (Herbicidal ratio of 90% or more (almost completely withered)). Also, the “R: Veronica persica, herbicidal effect grade” value with Veronica persica is 3 (Herbicidal ratio of 40% or higher and lower than 70%). For the same compound, the “effect on crop b” value in data set [5] is listed as 5 (Herbicidal ratio of 90% or more (almost completely withered)). In the data set on Stellaria media, the “P: Stellaria media, herbicidal effect” value was 3 (Herbicidal ratio of 40% or higher and lower than 70%). Moreover, in the data set with Lolium multiflorum Lam. [6], the “K: Lolium multiflorum Lam., herbicidal effect grade” value is given as 5 (Herbicidal ratio of 90% or more (almost completely withered)). In addition, the “G: Setaria viridis, herbicidal effect grade” value in the data set on Setaria viridis is 5 (Herbicidal ratio of 90% or more (almost completely withered)). Further, in the data set on Chenopodium album [7], the “O: Chenopodium album, herbicidal effect grade” value is on record as 0 (Herbicidal ratio of 5% or lower (almost no effect)). Further, in the data set on Lolium multiflorum Lam. [8], the “K: Lolium multiflorum Lam., herbicidal effect (criteria of Test Example 1)” value is on record as 5 (Herbicidal ratio of 90% or more (almost completely withered)).
Take `CON=C(C)CC1CC(OC(=O)COc2ccccc2)=C(c2c(C)cc(-c3ccccc3)cc2OC)C1=O` (stereo not drawn) [6-100]: the “herbicidal effect on H” value in data set [1] is on record as 5 (Herbicidal ratio of 90% or more (almost completely withered)). In the data set on Amaranthus retroflexus, the “Herbicidal effect grade, N: Amaranthus retroflexus” value is given as 5 (Herbicidal ratio of 90% or more (almost completely withered)). Moreover, the “Herbicidal effect grade, Q: Galium spurium” value with Galium spurium was 1 (Herbicidal ratio of 5% or higher and lower than 20%). Also, the “Effect on crop grade, e: wheat” value in the data set on wheat is 3 (Herbicidal ratio of 40% or higher and lower than 70%). In addition, the “Herbicidal effect grade, F: Digitaria ciliaris” value in the data set on Digitaria ciliaris [2] was 5 (Herbicidal ratio of 90% or more (almost completely withered)). Further, the “J: Alopecurus myosuroides” value with Alopecurus myosuroides is 5 (Herbicidal ratio of 90% or more (almost completely withered)). For the same compound, the “M: Abutilon theophrasti” value in the data set with Abutilon theophrasti is 3 (Herbicidal ratio of 40% or higher and lower than 70%). For the same compound, the “Effect grade on crop” value in the data set on transplanted rice plant is 5 (Herbicidal ratio of 90% or more (almost completely withered)). Moreover, the “f: beet, effect on crop” value in the data set on beet is 0 (Herbicidal ratio of 5% or lower (almost no effect)). In addition, the “O: Chenopodium album, herbicidal effect (criteria of Test Example 1)” value with Chenopodium album [3] was 4 (Herbicidal ratio of 70% or higher and lower than 90%). In addition, the “F: Digitaria ciliaris, herbicidal effect (criteria of Test Example 1)” value with Digitaria ciliaris [4] was 5 (Herbicidal ratio of 90% or more (almost completely withered)). Besides, in the data set with Veronica persica, the “Herbicidal effect grade, R: Veronica persica” value is 5 (Herbicidal ratio of 90% or more (almost completely withered)). In addition, the “effect on crop b” value in data set [5] is recorded as 5 (Herbicidal ratio of 90% or more (almost completely withered)). The “P: Stellaria media, herbicidal effect” value with Stellaria media was 3 (Herbicidal ratio of 40% or higher and lower than 70%). The “Herbicidal effect grade, K: Lolium multiflorum Lam.” value in the data set on Lolium multiflorum Lam. [6] is 5 (Herbicidal ratio of 90% or more (almost completely withered)). Further, in the data set with Setaria viridis, the “Herbicidal effect grade, G: Setaria viridis” value was 5 (Herbicidal ratio of 90% or more (almost completely withered)). Further, in the data set on Chenopodium album [7], the “Herbicidal effect grade, O: Chenopodium album” value was 5 (Herbicidal ratio of 90% or more (almost completely withered)). For the same compound, in the data set with Lolium multiflorum Lam. [8], the “K: Lolium multiflorum Lam., herbicidal effect (criteria of Test Example 1)” value was 5 (Herbicidal ratio of 90% or more (almost completely withered)).
